Here are results for five compounds from patent US20240067693A1, “POLYPEPTIDES AND USES THEREOF” (MEDIMMUNE LIMITED, priority 2020, published 2024).

As usually defined, the EC50 is the concentration at which the effect is half-maximal.

Numbered stars: 1 amine (or outer) side, 2 acyl side, 3 side chain; on linkers, the order of the positions; unused ones are H or OH. Bridge positions count the residues as written; N and C are the ends. Square brackets hold non-standard residues; d marks the D form. Side chains are listed from the residue outwards. Peptide text beside a SMILES is read from it. * marks the point of attachment. C18 diacid = O=C(O)CCCCCCCCCCCCCCCCC(=O)*; γGlu = O=C(O)[C@H](CCC(=O)[*:2])N[*:1]; Aib = CC(C)(N)C(=O)O

The target in test [1] is T1, human calcitonin receptor (hCTR) (Homo sapiens, UniProt P30988).
T1 construct: expressed in transfected cells
T1 sequence (P30988 25-474): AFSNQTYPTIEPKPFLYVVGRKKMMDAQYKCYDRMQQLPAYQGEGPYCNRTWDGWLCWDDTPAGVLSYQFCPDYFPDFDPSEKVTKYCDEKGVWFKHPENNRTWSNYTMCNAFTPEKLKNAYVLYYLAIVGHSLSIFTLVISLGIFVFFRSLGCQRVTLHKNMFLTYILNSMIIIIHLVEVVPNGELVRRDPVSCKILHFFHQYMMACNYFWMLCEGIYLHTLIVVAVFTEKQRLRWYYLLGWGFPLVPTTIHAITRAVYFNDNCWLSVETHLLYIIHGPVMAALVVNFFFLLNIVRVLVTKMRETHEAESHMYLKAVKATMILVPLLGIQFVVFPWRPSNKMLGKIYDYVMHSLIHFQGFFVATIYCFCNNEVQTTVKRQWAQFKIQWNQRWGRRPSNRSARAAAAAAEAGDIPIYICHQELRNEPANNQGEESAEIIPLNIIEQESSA
The test can be described thus: cAMP production in 1321N1 cells with stable recombinant expression of human calcitonin receptor (hCTR). In kind it is cell-based. Conditions: cAMP, 1321N1 cells, assay buffer with 0.1% BSA; read-out: EC50 (pM) hCTR. The method in brief:
(§1)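 Receptor-expressing cells (human receptors in 1321N1, rat receptors in HEK) incubated 30 min at room temperature with peptide in HBSS/HEPES pH 7.4, 0.1% BSA, 0.5 mM IBMX. cAMP read by HTRF; EC50 from 4-parameter fit as % of maximal amylin or calcitonin response.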

The target of test [2] is T2, human amylin receptor (calcitonin receptor co-expressed with receptor activity modifying protein, RAMP3) (hAMYR3) (Homo sapiens, UniProt O60896+P30988).
T2 construct: expressed in transfected cells
T2 sequence (P30988 25-474): T1 sequence (P30988 25-474)
T2 sequence (O60896 24-148 partner): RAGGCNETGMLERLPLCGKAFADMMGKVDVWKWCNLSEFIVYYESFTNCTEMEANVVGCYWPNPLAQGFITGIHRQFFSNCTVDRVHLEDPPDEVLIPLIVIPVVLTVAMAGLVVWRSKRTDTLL
The experiment in a line: cAMP production in 1321N1 cells with stable recombinant expression of human amylin receptor (hAMYR3). In kind it is cell-based. Particulars: for Ratio (selectivity hAMYR vs hCTR, ratio of EC50 values at the two receptors): EC50 hCTR / EC50 hAMYR3; for EC50: cAMP, 1321N1 cells, assay buffer with 0.1% BSA, read-out: EC50 (pM) hAMYR3. In outline:
as §1

In the case of `CC[C@H](C)[C@H](NC(=O)[C@@H]1CCCN1C(=O)CNC(=O)[C@H](Cc1ccccc1)NC(=O)[C@H](CC(N)=O)NC(=O)[C@H](CC(N)=O)NC(=O)[C@H](CO)NC(=O)[C@H](CO)NC(=O)[C@H](Cc1c[nH]cn1)NC(=O)C(C)(C)NC(=O)[C@H](CC(C)C)NC(=O)[C@H](Cc1ccccc1)NC(=O)[C@H](CC(N)=O)NC(=O)[C@H](C)NC(=O)[C@H](CC(C)C)NC(=O)[C@H](CCCNC(=N)N)NC(=O)[C@H](CCC(N)=O)NC(=O)[C@@H](NC(=O)[C@H](C)NC(=O)[C@@H]1CSSC[C@H](NC(=O)[C@H](CCCCN)NC(=O)[C@@H](N)CCCCNC(=O)CC[C@H](NC(=O)CCCCCCCCCCCCCCCCC(=O)O)C(=O)O)C(=O)N[C@@H](CC(N)=O)C(=O)N[C@@H]([C@@H](C)O)C(=O)N[C@@H](C)C(=O)N[C@@H]([C@@H](C)O)C(=O)N1)[C@@H](C)O)C(=O)N[C@@H](CC(C)C)C(=O)N1CCC[C@H]1C(=O)N1CCC[C@H]1C(=O)N[C@H](C(=O)N[C@@H](CC(N)=O)C(=O)N[C@H](C(=O)NCC(=O)N[C@@H](CO)C(=O)NC(C)(C)C(=O)N[C@H](C(=O)N[C@@H](Cc1ccc(O)cc1)C(N)=O)[C@@H](C)O)C(C)C)[C@@H](C)O` [Peptide 102, K(γE-C18diacid)K[CNTATC]ATQRLANFL(Aib)HSSNNFGPILPPTNVGS(Aib)TY-amide] (H-K([γGlu-C18 diacid])KCNTATCATQRLANFL[Aib]HSSNNFGPILPPTNVGS[Aib]TY-NH2; disulfide 3-8), the EC50 in test [1] was 1630 pM. In test [2], the “Ratio (selectivity hAMYR vs hCTR, ratio of EC50 values at the two receptors)” value is 3 and the EC50 amounted to 479 pM.

With `CC[C@H](C)[C@H](NC(=O)[C@@H]1CCCN1C(=O)CNC(=O)[C@H](Cc1ccccc1)NC(=O)[C@H](CC(N)=O)NC(=O)[C@H](CCCNC(=N)N)NC(=O)[C@H](CO)NC(=O)[C@H](CO)NC(=O)[C@H](Cc1c[nH]cn1)NC(=O)C(C)(C)NC(=O)[C@H](CC(C)C)NC(=O)[C@H](Cc1ccccc1)NC(=O)[C@H](CC(N)=O)NC(=O)[C@H](C)NC(=O)[C@H](CC(C)C)NC(=O)[C@H](CCCNC(=N)N)NC(=O)[C@H](CCC(N)=O)NC(=O)[C@@H](NC(=O)[C@H](C)NC(=O)[C@@H]1CSSC[C@H](NC(=O)[C@H](CCCCN)NC(=O)[C@@H](N)CCCCNC(=O)CC[C@H](NC(=O)CCCCCCCCCCCCCCCCC(=O)O)C(=O)O)C(=O)N[C@@H](CC(N)=O)C(=O)N[C@@H]([C@@H](C)O)C(=O)N[C@@H](C)C(=O)N[C@@H]([C@@H](C)O)C(=O)N1)[C@@H](C)O)C(=O)N[C@@H](CC(C)C)C(=O)N1CCC[C@H]1C(=O)N1CCC[C@H]1C(=O)N[C@H](C(=O)N[C@@H](CC(N)=O)C(=O)N[C@H](C(=O)NCC(=O)N[C@@H](CO)C(=O)N[C@@H](CC(N)=O)C(=O)N[C@H](C(=O)N[C@@H](Cc1ccc(O)cc1)C(N)=O)[C@@H](C)O)C(C)C)[C@@H](C)O` [Peptide 137] (H-K([γGlu-C18 diacid])KCNTATCATQRLANFL[Aib]HSSRNFGPILPPTNVGSNTY-NH2; disulfide 3-8; N-terminus assumed), in test [1], the EC50 was 1500 pM. In addition, in test [2], the “Ratio (selectivity hAMYR vs hCTR, ratio of EC50 values at the two receptors)” value came out at 6.3 and the EC50 worked out at 238 pM.

Consider `CC[C@H](C)[C@H](NC(=O)[C@@H]1CCCN1C(=O)CNC(=O)[C@H](Cc1ccccc1)NC(=O)[C@H](Cc1c[nH]cn1)NC(=O)[C@H](CC(N)=O)NC(=O)[C@H](CO)NC(=O)[C@H](CO)NC(=O)[C@H](Cc1c[nH]cn1)NC(=O)C(C)(C)NC(=O)[C@H](CC(C)C)NC(=O)[C@H](Cc1ccccc1)NC(=O)[C@H](CC(N)=O)NC(=O)[C@H](C)NC(=O)[C@H](CC(C)C)NC(=O)[C@H](CCCNC(=N)N)NC(=O)[C@H](CCC(N)=O)NC(=O)[C@@H](NC(=O)[C@H](C)NC(=O)[C@@H]1CSSC[C@H](NC(=O)[C@H](CCCCN)NC(=O)[C@@H](N)CCCCNC(=O)CC[C@H](NC(=O)CCCCCCCCCCCCCCCCC(=O)O)C(=O)O)C(=O)N[C@@H](CC(N)=O)C(=O)N[C@@H]([C@@H](C)O)C(=O)N[C@@H](C)C(=O)N[C@@H]([C@@H](C)O)C(=O)N1)[C@@H](C)O)C(=O)N[C@@H](CC(C)C)C(=O)N1CCC[C@H]1C(=O)N1CCC[C@H]1C(=O)N[C@H](C(=O)N[C@@H](CC(N)=O)C(=O)N[C@H](C(=O)NCC(=O)N[C@@H](CO)C(=O)N[C@@H](CCC(=O)O)C(=O)N[C@H](C(=O)N[C@@H](Cc1ccc(O)cc1)C(N)=O)[C@@H](C)O)C(C)C)[C@@H](C)O` [Peptide 147] (H-K([γGlu-C18 diacid])KCNTATCATQRLANFL[Aib]HSSNHFGPILPPTNVGSETY-NH2; disulfide 3-8; N-terminus assumed), for which the EC50 in test [1] worked out at 1510 pM. In test [2], the “Ratio (selectivity hAMYR vs hCTR, ratio of EC50 values at the two receptors)” value is 1.9 and the EC50 is 802 pM.

`CC[C@H](C)[C@H](NC(=O)[C@@H]1CCCN1C(=O)CNC(=O)[C@H](Cc1ccccc1)NC(=O)[C@H](CC(N)=O)NC(=O)[C@H](CC(N)=O)NC(=O)[C@H](CO)NC(=O)[C@H](CO)NC(=O)[C@H](Cc1c[nH]cn1)NC(=O)C(C)(C)NC(=O)[C@H](CC(C)C)NC(=O)[C@H](Cc1ccccc1)NC(=O)[C@H](CC(N)=O)NC(=O)[C@H](C)NC(=O)[C@H](CC(C)C)NC(=O)[C@H](CCCNC(=N)N)NC(=O)[C@H](CCC(N)=O)NC(=O)[C@@H](NC(=O)[C@H](C)NC(=O)[C@@H]1CSSC[C@H](NC(=O)[C@H](CCCCN)NC(=O)[C@@H](N)CCCCNC(=O)CC[C@H](NC(=O)CCCCCCCCCCCCCCCCC(=O)O)C(=O)O)C(=O)N[C@@H](CC(N)=O)C(=O)N[C@@H]([C@@H](C)O)C(=O)N[C@@H](C)C(=O)N[C@@H]([C@@H](C)O)C(=O)N1)[C@@H](C)O)C(=O)N[C@@H](CC(C)C)C(=O)NC(C)(C)C(=O)N1CCC[C@H]1C(=O)N[C@H](C(=O)N[C@@H](CC(N)=O)C(=O)N[C@H](C(=O)NCC(=O)N[C@@H](CO)C(=O)N[C@@H](CC(N)=O)C(=O)N[C@H](C(=O)N[C@@H](Cc1ccc(O)cc1)C(N)=O)[C@@H](C)O)C(C)C)[C@@H](C)O` [Peptide 96, K(γE-C18diacid)K[CNTATC]ATQRLANFL(Aib)HSSNNFGPIL(Aib)PTNVGSNTY-amide] (H-K([γGlu-C18 diacid])KCNTATCATQRLANFL[Aib]HSSNNFGPIL[Aib]PTNVGSNTY-NH2; disulfide 3-8; N-terminus assumed): the EC50 in test [1] was 859 pM. In test [2], the “Ratio (selectivity hAMYR vs hCTR, ratio of EC50 values at the two receptors)” value is listed as 2 and the EC50 is 556 pM.

As to `CC[C@H](C)[C@H](NC(=O)[C@@H]1CCCN1C(=O)CNC(=O)[C@H](Cc1ccccc1)NC(=O)[C@H](CC(N)=O)NC(=O)[C@H](CC(N)=O)NC(=O)[C@H](CO)NC(=O)[C@H](CO)NC(=O)[C@H](Cc1c[nH]cn1)NC(=O)C(C)(C)NC(=O)[C@H](CC(C)C)NC(=O)[C@H](Cc1ccccc1)NC(=O)[C@H](CC(N)=O)NC(=O)[C@H](C)NC(=O)[C@H](CC(C)C)NC(=O)[C@H](CCCNC(=N)N)NC(=O)[C@H](CCC(N)=O)NC(=O)[C@@H](NC(=O)[C@H](C)NC(=O)[C@@H]1CSSC[C@H](NC(=O)[C@H](CCCCN)NC(=O)[C@@H](N)CCCCNC(=O)CC[C@H](NC(=O)CCCCCCCCCCCCCCCCC(=O)O)C(=O)O)C(=O)N[C@@H](CC(N)=O)C(=O)N[C@@H]([C@@H](C)O)C(=O)N[C@@H](C)C(=O)N[C@@H]([C@@H](C)O)C(=O)N1)[C@@H](C)O)C(=O)NC(C)(C)C(=O)N1CCC[C@H]1C(=O)N1CCC[C@H]1C(=O)N[C@H](C(=O)N[C@@H](CC(N)=O)C(=O)N[C@H](C(=O)NCC(=O)N[C@@H](CO)C(=O)N[C@@H](CC(N)=O)C(=O)N[C@H](C(=O)N[C@@H](Cc1ccc(O)cc1)C(N)=O)[C@@H](C)O)C(C)C)[C@@H](C)O` [Peptide 95, K(γE-C18diacid)K[CNTATC]ATQRLANFL(Aib)HSSNNFGPI(Aib)PPTNVGSNTY-amide] (H-K([γGlu-C18 diacid])KCNTATCATQRLANFL[Aib]HSSNNFGPI[Aib]PPTNVGSNTY-NH2; disulfide 3-8), the EC50 in test [1] worked out at 1170 pM; in test [2] it was 691 pM. Further, the “Ratio (selectivity hAMYR vs hCTR, ratio of EC50 values at the two receptors)” value in test [2] was 2.
